Results from patent US20240277698A1, “METHODS OF USING ALDOSTERONE SYNTHASE INHIBITORS” (CINCOR PHARMA, INC., priority 2021, published 2024).
Entries after “also recorded” stand apart in the source; their conditions may differ. Like-named read-outs stand apart in the source and are kept apart here.

Key:
[1] = Relative bioavailability of tablet versus oral solution, single 5 mg dose; type: in vivo, human; settings: for AUC(0-inf) / AUC(0-t) / Cmax: 5 mg
Method: The relative bioavailability of the tablet formulation intended for use in future clinical studies as compared to the oral solution of (R)-compound 1 administered in the SAD and MAD was assessed following a single 5 mg dose of each formulation. Mean (+SD [standard deviation]) plasma concentration-time profiles following administration of the oral solution and tablet formulations are presented in FIG. 9.
Mean (SD) PK parameters of (R)-compound 1 following administration of the oral solution and tablet formulations are presented in Table 12.

[2] = molecular target: T1, CYP11B1 (Homo sapiens, UniProt P15538); test: MAD study: plasma cortisol (free and total) and 11-deoxycortisol, with and without Cortrosyn challenge; type: in vivo; settings: for cortisol (total or free) or 11-deoxycortisol: doses ≤5 mg, including Cortrosyn challenge
T1 construct: endogenous in cells; host or cells: adrenal cortex of healthy human subjects (in vivo, oral dosing)
T1 sequence (P15538 25-503): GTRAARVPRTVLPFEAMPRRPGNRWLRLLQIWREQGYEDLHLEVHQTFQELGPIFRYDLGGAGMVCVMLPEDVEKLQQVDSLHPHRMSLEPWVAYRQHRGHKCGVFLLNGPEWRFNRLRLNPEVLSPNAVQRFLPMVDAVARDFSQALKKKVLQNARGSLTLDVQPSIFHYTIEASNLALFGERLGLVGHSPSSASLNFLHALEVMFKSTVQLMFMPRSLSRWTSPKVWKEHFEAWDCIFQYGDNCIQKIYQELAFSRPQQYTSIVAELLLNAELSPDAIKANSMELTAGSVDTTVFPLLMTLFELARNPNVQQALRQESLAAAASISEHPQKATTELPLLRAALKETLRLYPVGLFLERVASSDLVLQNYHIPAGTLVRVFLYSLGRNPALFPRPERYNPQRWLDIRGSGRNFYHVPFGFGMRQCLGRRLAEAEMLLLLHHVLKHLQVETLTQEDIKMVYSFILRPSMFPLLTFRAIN
Excerpt: For each subject, the study consisted of: • A screening period of up to 28 days; • A 5-day inpatient run-in period during which subjects adhered to a controlled, standardized diet and underwent baseline PD assessments; • A 15-day inpatient treatment period, during which subjects received (R)-compound 1 or placebo once daily for 10 days while adhering to a controlled, standardized diet, followed by PK and PD sampling over an additional 5 days; and • A follow-up visit 3 days (1 day) after discharge from the clinical unit. • A cortisol stimulation test (Cohorts 1 and 2 only) and standing aldosterone assessment (all cohorts) were performed on Days 1 and 10. Serial blood samples for PK and PD were obtained prior to and at specified time points over 24 hours after dosing on Day 1 as well as prior to and at specified time points over 120 hours after dosing on Day 10. In addition, blood samples for PK were collected prior to dosing on Days 8 and 9. Urine for PK and PD measurements was collected over 24 hours starting just prior to dosing on Day 1 as well as over 120 hours starting just prior to dosing on Day 10.
These findings are consistent in the presence of Cortrosyn challenge (which occurred with the low salt treatment groups) and in the absence of the challenge (normal salt groups) (Table 13).

[3] = Day 1, 0.5 mg, normal salt diet
[4] = Day 1, 1.5 mg, normal salt diet
[5] = Day 1, 2.5 mg, low salt diet (Cortrosyn challenge)
[6] = Day 1, 2.5 mg, normal salt diet
[7] = Day 1, 5.0 mg, low salt diet (Cortrosyn challenge)
[8] = Day 10, 0.5 mg, normal salt diet
[9] = Day 10, 1.5 mg, normal salt diet
[10] = Day 10, 2.5 mg, low salt diet (Cortrosyn challenge)
[11] = Day 10, 2.5 mg, normal salt diet
[12] = Day 10, 5.0 mg, low salt diet (Cortrosyn challenge)

CCC(=O)N[C@@H]1CCCc2c(-c3ccc4c(c3)CCC(=O)N4C)cncc21 [(R)-Compound 1, (R)—N-(4-(1-methyl-2-oxo-1,2,3,4-tetrahydroquinolin-6-yl)-5,6,7,8-tetrahydroisoquinolin-8-yl)propionamide]
AUC(0-inf) ([1]; human, plasma, oral, tablet, read-out: AUC0-inf, GM (Geo. CV %)): 1670 ng·h/mL | AUC(0-inf) ([1]; human, plasma, oral, tablet, read-out: AUC0-inf, Geo. LS Mean): 1720 ng·h/mL | AUC(0-inf) ([1]; human, plasma, oral, tablet, read-out: AUC0-inf, Mean): 1720 ng·h/mL | AUC(0-t) ([1]; human, plasma, oral, tablet, read-out: AUC0-t, GM (Geo. CV %)): 1580 ng·h/mL | AUC(0-t) ([1]; human, plasma, oral, tablet, read-out: AUC0-t, Geo. LS Mean): 1620 ng·h/mL | AUC(0-t) ([1]; human, plasma, oral, tablet, read-out: AUC0-t, Mean): 1620 ng·h/mL | Cmax ([1]; human, plasma, oral, tablet, read-out: Cmax, GM (Geo. CV %)): 52.3 ng/mL | Cmax ([1]; human, plasma, oral, tablet, read-out: Cmax, Geo. LS Mean): 52.8 ng/mL | Cmax ([1]; human, plasma, oral, tablet, read-out: Cmax, Mean (SD)): 53.1 ng/mL | Tmax ([1]; human, plasma, oral, tablet, read-out: Tmax, Median (min, max)): 3 h | AUC(0-inf) ([1]; human, plasma, po, oral solution, read-out: AUC0-inf, GM (Geo. CV %)): 1710 ng·h/mL | AUC(0-inf) ([1]; human, plasma, po, oral solution, read-out: AUC0-inf, Geo. LS Mean): 1680 ng·h/mL | AUC(0-inf) ([1]; human, plasma, po, oral solution, read-out: AUC0-inf, Mean): 1750 ng·h/mL | AUC(0-t) ([1]; human, plasma, po, oral solution, read-out: AUC0-t, GM (Geo. CV %)): 1610 ng·h/mL | AUC(0-t) ([1]; human, plasma, po, oral solution, read-out: AUC0-t, Geo. LS Mean): 1580 ng·h/mL | AUC(0-t) ([1]; human, plasma, po, oral solution, read-out: AUC0-t, Mean): 1650 ng·h/mL | Cmax ([1]; human, plasma, po, oral solution, read-out: Cmax, GM (Geo. CV %)): 52.7 ng/mL | Cmax ([1]; human, plasma, po, oral solution, read-out: Cmax, Geo. LS Mean): 52.1 ng/mL | AUCextrapolated, GM (Geo. CV %) ([1]; oral solution): 5.018 (56.4) % | AUCextrapolated, Mean (SD) ([1]; oral solution): 5.565 (2.2131) % | Cmax, Mean (SD) ([1]; oral solution): 53.886 (11.6813) ng/mL | Tmax, Median (min, max) ([1]; oral solution): 2.500 (1.00, 3.50) h | AUCextrapolated, GM (Geo. CV %) ([1]; tablet): 4.995 (59.7) % | AUCextrapolated, Mean (SD) ([1]; tablet): 5.600 (2.3669) % | AUC0-inf, Ratio of Geo. LS Means (tablet/solution) ([1]; tablet versus oral solution): 102.2% | AUC0-t, Ratio of Geo. LS Means (tablet/solution) ([1]; tablet versus oral solution): 102.2% | Cmax, Ratio of Geo. LS Means (tablet/solution) ([1]; tablet versus oral solution): 101.2% | Plasma total cortisol, percent change from Day −1 to Day 10, predose, mean ([2]; 0.5 mg, normal salt diet): −2.83% | Plasma total cortisol, percent change from Day −1 to Day 10, predose, mean ([2]; 1.5 mg, normal salt diet): 19.44% | Plasma total cortisol, percent change from Day −1 to Day 10, predose, mean ([2]; 2.5 mg, low salt diet): 5.29% | Plasma total cortisol, percent change from Day −1 to Day 10, predose, mean ([2]; 2.5 mg, normal salt diet): −0.09% | Plasma total cortisol, percent change from Day −1 to Day 10, predose, mean ([2]; 5.0 mg, low salt diet): 58.40% | Plasma total cortisol, mean ([2]; Day 1, 12 hours postdose, 0.5 mg, normal salt diet): 28.14 ng/mL | Plasma total cortisol, mean ([2]; Day 1, 12 hours postdose, 1.5 mg, normal salt diet): 25.32 ng/mL | Plasma total cortisol, mean ([2]; Day 1, 12 hours postdose, 2.5 mg, low salt diet): 21.90 ng/mL | Plasma total cortisol, mean ([2]; Day 1, 12 hours postdose, 2.5 mg, normal salt diet): 30.10 ng/mL | Plasma total cortisol, mean ([2]; Day 1, 12 hours postdose, 5.0 mg, low salt diet): 19.43 ng/mL | Plasma total cortisol, mean ([2]; Day 1, predose, 0.5 mg, normal salt diet): 84.15 ng/mL | Plasma total cortisol, mean ([2]; Day 1, predose, 1.5 mg, normal salt diet): 97.61 ng/mL | Plasma total cortisol, mean ([2]; Day 1, predose, 2.5 mg, low salt diet): 71.75 ng/mL | Plasma total cortisol, mean ([2]; Day 1, predose, 2.5 mg, normal salt diet): 106.85 ng/mL | Plasma total cortisol, mean ([2]; Day 1, predose, 5.0 mg, low salt diet): 68.24 ng/mL | Plasma 11-deoxycortisol AUC0-12 estimated percent change from baseline, LS Mean [2, 3]: −0.57% | Plasma cortisol AUC0-12 estimated percent change from baseline, LS Mean [2, 3]: −4.43% | Plasma 11-deoxycortisol AUC0-12 estimated percent change from baseline, LS Mean [2, 4]: 2.39% | Plasma cortisol AUC0-12 estimated percent change from baseline, LS Mean [2, 4]: 0.62% | Plasma 11-deoxycortisol AUC0-12 estimated percent change from baseline, LS Mean [2, 5]: 21.63% | Plasma cortisol AUC0-12 estimated percent change from baseline, LS Mean [2, 5]: −3.91% | Plasma 11-deoxycortisol AUC0-12 estimated percent change from baseline, LS Mean [2, 6]: 12.73% | Plasma cortisol AUC0-12 estimated percent change from baseline, LS Mean [2, 6]: −0.52% | Plasma 11-deoxycortisol AUC0-12 estimated percent change from baseline, LS Mean [2, 7]: 36.67% | Plasma cortisol AUC0-12 estimated percent change from baseline, LS Mean [2, 7]: 4.04% | Plasma total cortisol, mean ([2]; Day 2, predose, 0.5 mg, normal salt diet): 88.33 ng/mL | Plasma total cortisol, mean ([2]; Day 2, predose, 1.5 mg, normal salt diet): 95.12 ng/mL | Plasma total cortisol, mean ([2]; Day 2, predose, 2.5 mg, normal salt diet): 109.23 ng/mL | Plasma total cortisol, mean ([2]; Day 10, 12 hours postdose, 0.5 mg, normal salt diet): 22.36 ng/mL | Plasma total cortisol, mean ([2]; Day 10, 12 hours postdose, 1.5 mg, normal salt diet): 41.31 ng/mL | Plasma total cortisol, mean ([2]; Day 10, 12 hours postdose, 2.5 mg, low salt diet): 22.93 ng/mL | Plasma total cortisol, mean ([2]; Day 10, 12 hours postdose, 2.5 mg, normal salt diet): 31.86 ng/mL | Plasma total cortisol, mean ([2]; Day 10, 12 hours postdose, 5.0 mg, low salt diet): 31.90 ng/mL | Plasma total cortisol, mean ([2]; Day 10, 24 hours postdose, 0.5 mg, normal salt diet): 95.76 ng/mL | Plasma total cortisol, mean ([2]; Day 10, 24 hours postdose, 1.5 mg, normal salt diet): 90.27 ng/mL | Plasma total cortisol, mean ([2]; Day 10, 24 hours postdose, 2.5 mg, low salt diet): 94.36 ng/mL | Plasma total cortisol, mean ([2]; Day 10, 24 hours postdose, 2.5 mg, normal salt diet): 126.20 ng/mL | Plasma total cortisol, mean ([2]; Day 10, 24 hours postdose, 5.0 mg, low salt diet): 121.40 ng/mL | Plasma total cortisol, mean ([2]; Day 10, predose, 0.5 mg, normal salt diet): 81.90 ng/mL | Plasma total cortisol, mean ([2]; Day 10, predose, 1.5 mg, normal salt diet): 96.54 ng/mL | Plasma total cortisol, mean ([2]; Day 10, predose, 2.5 mg, low salt diet): 91.85 ng/mL | Plasma total cortisol, mean ([2]; Day 10, predose, 2.5 mg, normal salt diet): 106.52 ng/mL | Plasma total cortisol, mean ([2]; Day 10, predose, 5.0 mg, low salt diet): 112.67 ng/mL | Plasma 11-deoxycortisol AUC0-12 estimated percent change from baseline, LS Mean [2, 8]: −6.77% | Plasma cortisol AUC0-12 estimated percent change from baseline, LS Mean [2, 8]: −19.53% | Plasma 11-deoxycortisol AUC0-12 estimated percent change from baseline, LS Mean [2, 9]: 1.82% | Plasma cortisol AUC0-12 estimated percent change from baseline, LS Mean [2, 9]: −4.45% | Plasma 11-deoxycortisol AUC0-12 estimated percent change from baseline, LS Mean [2, 10]: −25.69% | Plasma cortisol AUC0-12 estimated percent change from baseline, LS Mean [2, 10]: −38.02% | Plasma 11-deoxycortisol AUC0-12 estimated percent change from baseline, LS Mean [2, 11]: −2.72% | Plasma cortisol AUC0-12 estimated percent change from baseline, LS Mean [2, 11]: −9.23% | Plasma 11-deoxycortisol AUC0-12 estimated percent change from baseline, LS Mean [2, 12]: 18.84% | Plasma cortisol AUC0-12 estimated percent change from baseline, LS Mean [2, 12]: −37.25% | Plasma total cortisol, mean ([2]; Day −1 predose, 0.5 mg, normal salt diet): 86.74 ng/mL | Plasma total cortisol, mean ([2]; Day −1 predose, 1.5 mg, normal salt diet): 90.79 ng/mL | Plasma total cortisol, mean ([2]; Day −1 predose, 2.5 mg, low salt diet): 90.39 ng/mL | Plasma total cortisol, mean ([2]; Day −1 predose, 2.5 mg, normal salt diet): 107.50 ng/mL | Plasma total cortisol, mean ([2]; Day −1 predose, 5.0 mg, low salt diet): 83.17 ng/mL | cortisol (total or free) or 11-deoxycortisol [2]: remained unaffected | cortisol (total or free) or 11-deoxycortisol ([2]; listed as (R)-compound 1): no apparent effects; also recorded: no apparent differences
